Laboratory results published in ChEMBL document CHEMBL5321259, “Synthesis and structure-activity relationship studies of naphthoquinones as STAT3 inhibitors” (Bioorg Med Chem, 2023).
Activity calls are given as the source filed them. No cut-off for these calls is given here.

How the values were obtained:
A549 [1] = experiment: Antiproliferative activity against human A549 cells assessed as inhibition of cell growth measured after 72 hrs by WST-8 method; assay type: functional, cell-based; conditions: A549, 72 h
MDA-MB-231 = experiment: Antiproliferative activity against human MDA-MB-231 cells assessed as inhibition of cell growth measured after 72 hrs by WST-8 method; assay type: functional, cell-based; conditions: MDA-MB-231, 72 h
[2] = target: Signal transducer and activator of transcription 3 (Homo sapiens) (UniProt P40763); experiment: Inhibition of STAT3 phosphorylation in human A549 cells assessed as decrease in IL-6 stimulated STAT3 phosphorylation at 0.5 to 3 uM preincubated for 1 hr followed by IL-6 stimulation and measured after 1 hrs by Western blot analysis; assay type: cell-based; conditions: dose 0.5-3 µM, time 2.0 hrs
[3] = target: Signal transducer and activator of transcription 3 (Homo sapiens) (UniProt P40763); experiment: Inhibition of IL-6 stimulated STAT3 phosphorylation in human A549 cells at <0.1 uM preincubated for 1 hr followed by IL-6 stimulation and measured after 1 hrs by Western blot analysis relative to control; assay type: cell-based; conditions: time 2.0 hrs
[4] = target: Signal transducer and activator of transcription 3 (Homo sapiens) (UniProt P40763); experiment: Inhibition of IL-6 stimulated STAT3 phosphorylation in human A549 cells at 10 uM preincubated for 1 hr followed by IL-6 stimulation and measured after 1 hrs by Western blot analysis; assay type: cell-based; conditions: time 2.0 hrs
A549 [5] = experiment: Antiproliferative activity against human A549 cells measured after 24 hrs by MTT assay; assay type: functional, cell-based; conditions: A549, 24 h

Chain of Signal transducer and activator of transcription 3 (Homo sapiens) (P40763 whole entry): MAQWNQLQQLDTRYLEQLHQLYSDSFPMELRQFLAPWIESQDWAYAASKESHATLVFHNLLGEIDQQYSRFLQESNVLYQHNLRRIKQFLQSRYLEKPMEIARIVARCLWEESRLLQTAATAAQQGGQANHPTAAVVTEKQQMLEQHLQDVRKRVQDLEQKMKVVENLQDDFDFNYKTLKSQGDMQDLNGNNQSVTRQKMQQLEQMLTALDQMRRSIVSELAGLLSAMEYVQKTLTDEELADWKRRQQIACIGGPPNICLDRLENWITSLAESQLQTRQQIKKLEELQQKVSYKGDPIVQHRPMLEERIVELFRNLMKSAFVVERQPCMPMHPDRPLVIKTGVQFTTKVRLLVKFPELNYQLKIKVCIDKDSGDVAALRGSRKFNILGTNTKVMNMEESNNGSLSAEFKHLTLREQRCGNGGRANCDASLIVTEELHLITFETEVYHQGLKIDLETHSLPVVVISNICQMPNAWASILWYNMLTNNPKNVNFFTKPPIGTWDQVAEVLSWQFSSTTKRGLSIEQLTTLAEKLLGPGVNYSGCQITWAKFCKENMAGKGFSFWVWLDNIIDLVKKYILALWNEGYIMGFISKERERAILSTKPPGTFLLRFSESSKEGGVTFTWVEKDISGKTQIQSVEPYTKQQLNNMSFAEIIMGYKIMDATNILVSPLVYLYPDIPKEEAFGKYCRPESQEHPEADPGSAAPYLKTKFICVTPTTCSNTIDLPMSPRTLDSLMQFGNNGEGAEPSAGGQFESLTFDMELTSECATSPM

## CC(=O)c1cc2c(o1)-c1ccccc1C(=O)C2=O
A549 [1]
  IC50: 1700 nM
MDA-MB-231
  IC50: 1500 nM
[2]
  inhibition: Active

## C[C@H](O)c1cc2c(o1)C(=O)c1cccc(O)c1C2=O
A549 [1]
  IC50: 160 nM
MDA-MB-231
  IC50: 350 nM

## CC(O)c1cc2c(o1)C(=O)c1cccc(S(=O)(=O)N(C)C)c1C2=O (configuration not stated)
A549 [1]
  IC50: 1200 nM
MDA-MB-231
  IC50: 770 nM
[2]
  inhibition: Active

## CC(O)c1cc2c(o1)C(=O)c1cccc3c1C2=NS3(=O)=O (configuration not stated)
A549 [1]
  IC50: 34 nM
MDA-MB-231
  IC50: 49 nM
[2]
  inhibition: Active
[3]
  inhibition: 100%

## C[C@H](O)c1cc2c(o1)-c1cccc(O)c1C(=O)C2=O
A549 [1]
  IC50: 390 nM
MDA-MB-231
  IC50: 2400 nM
[2]
  inhibition: Active
[3]
  inhibition: 100%

## CC(=O)c1cc2c(o1)C(=O)c1ccc(S(N)(=O)=O)cc1C2=O
A549 [1]
  IC50: 140 nM
MDA-MB-231
  IC50: 110 nM

## CC(=O)c1cc2c(o1)-c1cccc(O)c1C(=O)C2=O
A549 [1]
  IC50: 620 nM
MDA-MB-231
  IC50: 1400 nM
[2]
  inhibition: Active
[3]
  inhibition: 100%

## CC(=O)c1cc2c(o1)C(=O)c1cccc3c1C2=NS3(=O)=O
A549 [1]
  IC50: 54 nM
MDA-MB-231
  IC50: 89 nM
[2]
  inhibition: Active
[3]
  inhibition: 100%

## CC1(C)CCC2=C(O1)c1cccc(O)c1C(=O)C2=O
A549 [1]
  IC50: 630 nM
MDA-MB-231
  IC50: 1400 nM
[4]
  inhibition: inactive

## O=C1C(Nc2ccccc2N2CCNCC2)=CC2=NS(=O)(=O)c3cccc1c32
A549 [5]
  IC50: ≤ 4660 nM

## CC(O)c1cc2c(o1)C(=O)c1ccc(S(N)(=O)=O)cc1C2=O (configuration not stated)
A549 [1]
  IC50: 490 nM
MDA-MB-231
  IC50: 310 nM
